Values joined by “and” are separate entries in the source; they are usually repeats but may differ in a detail not shown here. Identical values can stand only once. Like-named read-outs stand apart in the source and are kept apart here.
Experiments:
[1] = test system: pediatric patients having nmDMD; assay: North Star Ambulatory Assessment (NSAA), 16-, 8- and 3-item, NCT02819557; format: in vivo, human
Text: Certain assessments on the NSAA 16-point scale were revised to reflect developmental stages for a pediatric patient population, e.g., “Lifts Head” was removed from the total, Items 3 and 8 on the NSAA scales were further revised to detect changes in the pediatric younger age group.^18,22 The same analysis was used for all subjects (n=14).
However, all patients were included in the baseline and week 52 assessments.

[2] = test system: pediatric patients having nmDMD; assay: Timed function tests (TFTs), NCT02819557; format: in vivo, human; conditions: for decrease in mean time taken to descend 4 stairs (SD): 40 mg/kg/day
Procedure: For timed function tests (TFTs), results summarizing the baseline values (Study Day 1), post-baseline values, and the change from baseline values were analyzed separately for each of the 4 tests, including time taken to i). walk/run 10 meters, ii). Climb 4 stairs, iii). Descend 4 stairs, and iv). Stand from a supine position. The 10 m walk/run test was assessed once. If the time taken to perform a TFT exceeded 30 seconds or if a subject could not perform a TFT due to disease progression, a value of 30 seconds was set for the summary analysis. The time values in seconds were summarized using descriptive statistics: n, mean, SD, median, range, and 95% confidence intervals. Observed values, and changes from baseline in TFTs were summarized accordingly for the evaluable population.

[3] = test system: boys with nmDMD; conditions: boys about seven to about 16 years of age with nmDMD, Phase 3 NCT01826487; cited from earlier work
[4] = Ataluren plasma pharmacokinetics, NCT02819557 phase 2 open-label trial (LC-MS/MS); format: in vivo, human; conditions: for Cmax (0-6 hr) / concentration at 6 h / AUC(0-t) / Tmax: oral 10, 10, 20 mg/kg TID; for concentration at 6 h / AUC(0-t) / Tmax: male, human, plasma; for concentration at 6 h: oral, read-out: Ctrough-6 hr; for AUC(0-t) / Tmax: po, 20 mg/kg; for Tmax: read-out: tmax (0-6 hr)
Procedure: A total dose of 40 mg/kg/day study drug was administered as three divided doses per day. The first dose administered was: 10 mg/kg in the morning, the second dose administered was 10 mg/kg at midday, and the third dose administered was 20 mg/kg in the evening.
Evaluations included blood sampling for gene sequencing, blood sampling for ataluren PK, vital signs, height, weight, physical exam, hematology urinalysis, 12-lead ECG, palatability questionnaire, adverse events (AEs), concomitant medications and non-DMD-related Aes. For single-dose and steady-state plasma concentrations, blood samples were collected pre-dose and at 1, 2, 4, 6, 8, and 10 hours post-dose on Days 1 (Visit 2) and 28 (Visit 3). Ataluren plasma concentrations were determined using a validated liquid chromatography with tandem mass spectrometry (LC-MS/MS) method, with a lower limit of quantification (LOQ) of 0.500 μg/mL. Efficacy evaluations included TFTs and the NSAA, adapted as described below.
Observed values of plasma concentrations for ataluren were summarized at each visit and time point by dose level. Descriptive statistics (n, mean, standard deviation [SD], coefficient of variation [CV %], median, minimum, and maximum) and geometric means and their CV % were calculated. PK parameters (AUC0-6, AUC0-10, Cmax (0-6 hr) Ctrough (0-6 hr), t max (0-6 hr), accumulation ratio (AR) (AUC), AR (Cmax)) were derived using actual sampling and dosing times. Concentrations below the LOQ were set to zero for the calculation of non-compartmental analysis (NCA) parameters.

[5] = Effective plasma concentration range for maximum benefit by 6 minute walking distance (6 MWD); set-up: species or system human; conditions: in vivo
Procedure: As used herein, the term “therapeutically effective amount” refers to that amount of ataluren administered to a patient based on patient weight that is sufficient to attain an average plasma concentration in a range of at least about 1 μg/mL to about 20 μg/mL during a 24 hour time period.

[6] = Day 1 and Day 28, most subjects
[7] = Week 0 - Day 1, arithmetic mean, n=14
[8] = Week 4 - Day 28, arithmetic mean, n=14
[9] = Week 4 - Day 28 vs Day 1, arithmetic mean, n=14

time of peak concentration post-morning dose (first peak) [4, 6]: approximately 2 hours | time of peak concentration post-morning dose (second peak, 2 hours post midday dose) [4, 6]: ~8 h | drug accumulation across doses ([4]; Day 28 vs Day 1): no apparent accumulation | Cmax (0-6 hr) [4, 7]: 15950 ng/mL | Cmax (0-6 hr) [4, 8]: 12540 ng/mL | AR AUC0-6 (accumulation ratio) [4, 9]: 0.99 | AR Cmax (accumulation ratio) [4, 9]: 1.02 | concentration at 6 h [4, 7]: 9120 ng/mL | concentration at 6 h [4, 8]: 5430 ng/mL | AUC(0-t) ([4]; Week 0 - Day 1, arithmetic mean, n=14, boys ≥2 to <5 years with nmDMD, read-out: AUC0-6): 53000 ng·h/mL | AUC(0-t) ([4]; Week 0 - Day 1, arithmetic mean, n=14, read-out: AUC0-10): 102000 ng·h/mL | Tmax [4, 7]: 3.84 h | AUC(0-t) ([4]; Week 4 - Day 28, arithmetic mean, n=14, read-out: AUC0-6): 43600 ng·h/mL | AUC(0-t) ([4]; Week 4 - Day 28, arithmetic mean, n=14, read-out: AUC0-10): 82100 ng·h/mL | Tmax [4, 8]: 2.72 h | time post morning dose at which the effective plasma concentration range is typically found [5]: ≤ 2 h
SMILES: O=C(O)c1cccc(-c2noc(-c3ccccc3F)n2)c1 [ataluren, 3-[5-(2-fluoro-phenyl)-[1,2,4]oxadiazol-3-yl]-benzoic acid]
3-item NSAA score, mean (SD) ([1]; Week 28, N=13): 5.8 (±0.38) | 8-item NSAA score, mean (SD) ([1]; Week 28, N=13): 12.1 (+3.12) | 16-item NSAA total score, mean (SD) ([1]; Week 28, N=13): 19.8 (±6.17) and 19.8 (6.17) | 16-item NSAA total score, percent improvement over baseline ([1]; Week 28, N=13): 24.88% and 24.88 (27.203) % | 3-item NSAA score, percent improvement over baseline ([1]; Week 28 vs baseline 5.4): 10.26% | 8-item NSAA score, percent improvement over baseline ([1]; Week 28 vs baseline 10.5): 15.14% | 16-item NSAA total score, improvement over baseline ([1]; Week 28 vs baseline 16.2, N=13): 3.5 (±3.43) points | 3-item NSAA score, mean (SD) ([1]; Week 52, N=14): 5.6 (+0.63) | 8-item NSAA score, mean (SD) ([1]; Week 52, N=14): 12.8 (+3.12) | 16-item NSAA total score, mean (SD) ([1]; Week 52, N=14): 21.5 (±6.48) and 21.5 (6.48) | 16-item NSAA total score, percent improvement over baseline ([1]; Week 52, N=14): 36.63% and 36.63 (29.956) % | 3-item NSAA score, percent improvement over baseline ([1]; Week 52 vs baseline 5.4): 6.31% | 8-item NSAA score, percent improvement over baseline ([1]; Week 52 vs baseline 10.5): 23.31% | 16-item NSAA total score, improvement over baseline ([1]; Week 52 vs baseline 16.0, N=14): 5.5 (±4.43) points | Timed Function Test assessments, change from baseline ([2]; all four TFTs over the 52-week study period): overall improvements from baseline | mean reduction from baseline, 10 m walk/run time ([2]; week 28, 13 patients): 0.8 (±1.54) seconds | mean percent improvement (SD), time to climb 4 stairs ([2]; week 28 vs baseline): 9.10 (±29.63) percent and 9.10 (29.630) percent | mean percent improvement (SD), time to descend 4 stairs ([2]; week 28 vs baseline): 7.17 (±26.43) percent and 7.17 (26.433) percent | mean percent improvement, 10 m walk/run ([2]; week 28 vs baseline): 8.35% and 8.35 (22.778) % | reduction in mean time to climb 4 stairs ([2]; week 28 vs baseline, N=13): 1.8 (±4.85) seconds | decrease in mean time taken to descend 4 stairs (SD) ([2]; week 28 vs mean baseline of 7.1 seconds, 12 patients): 0.6 (±1.93) seconds | mean reduction from baseline, 10 m walk/run time ([2]; week 52, 14 patients): 1.1 (±1.35) seconds | mean percent improvement (SD), time to climb 4 stairs ([2]; week 52 vs baseline): 23.36 (±26.25) percent and 23.36 (26.249) percent | mean percent improvement (SD), time to descend 4 stairs ([2]; week 52 vs baseline): 24.22 (±28.32) percent and 24.22 (28.322) percent | mean percent improvement, 10 m walk/run ([2]; week 52 vs baseline): 14.54% and 14.54 (14.862) % | reduction in mean time to climb 4 stairs ([2]; week 52 vs baseline, N=14): 2.6 (±5.0) seconds | decrease in mean time taken to descend 4 stairs (SD) ([2]; week 52 vs mean baseline of 7.5 seconds, 13 patients): 2.2 (±2.58) seconds | mean improvement from baseline in stand from supine position assessment, week 28 compared with week 52 ([2]; weeks 28 (N=13) and 52 (N=14)): similar | tolerability [3]: generally well tolerated | plasma levels and safety in the younger population relative to older children ([4]; ≥2 to <5 yrs vs ≥5 yrs nmDMD populations): similar

— patent publication US12458629B2, “Method for treating nonsense mutation mediated duchenne muscular dystrophy in pediatric patients” (PTC THERAPEUTICS, INC., priority 2019, dated 2025)
